The values below come from the supplement of paper PMC10307832.

Common to all, as to test: relative viability (nuclei count vs DMSO), 5 days (fraction); higher = more cells survive
Compound in the experiment “AT9283 + Lapatinib”: O=C(Nc1c[nH]nc1-c1nc2ccc(CN3CCOCC3)cc2[nH]1)NC1CC1 [AT9283] + CS(=O)(=O)CCNCc1ccc(-c2ccc3ncnc(Nc4ccc(OCc5cccc(F)c5)c(Cl)c4)c3c2)o1 [Lapatinib] (partner 2 µM)
In short, it runs like this: (§1)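 Relative viability is defined as nuclei in treated wells over nuclei in vehicle wells. Duplicate plates were run and medians reported. Lung cancer cell lines in 1536-well plates were dosed by pin tool one day after seeding, with one drug or with a fixed anchor-drug dose plus five library-drug doses (not always all listed) in √10 steps, and nuclei were counted after 5 days.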

Compound in the experiment “Erlotinib + AZD7762”: C#Cc1cccc(Nc2ncnc3cc(OCCOC)c(OCCOC)cc23)c1 [Erlotinib] + NC(=O)Nc1cc(-c2cccc(F)c2)sc1C(=O)N[C@H]1CCCNC1 [AZD7762] (partner 0.2 µM)
In short, it runs like this:
as §1

Compound in the experiment “AT9283 + Palbociclib”: O=C(Nc1c[nH]nc1-c1nc2ccc(CN3CCOCC3)cc2[nH]1)NC1CC1 [AT9283] + CC(=O)c1c(C)c2cnc(Nc3ccc(N4CCNCC4)cn3)nc2n(C2CCCC2)c1=O [Palbociclib] (partner 0.5 µM)
In short, it runs like this:
as §1

Compound in the experiment “Erlotinib + Foretinib”: C#Cc1cccc(Nc2ncnc3cc(OCCOC)c(OCCOC)cc23)c1 [Erlotinib] + COc1cc2c(Oc3ccc(NC(=O)C4(C(=O)Nc5ccc(F)cc5)CC4)cc3F)ccnc2cc1OCCCN1CCOCC1 [Foretinib] (partner 0.25 µM)
An outline of the steps: as §1

Compound in the experiment “AT9283 + AZD7762”: O=C(Nc1c[nH]nc1-c1nc2ccc(CN3CCOCC3)cc2[nH]1)NC1CC1 [AT9283] + NC(=O)Nc1cc(-c2cccc(F)c2)sc1C(=O)N[C@H]1CCCNC1 [AZD7762] (partner 0.2 µM)
In short, it runs like this: as §1

Turning to NCI-H1355, the relative viability with AT9283 + Lapatinib (first compound 0.003 µM) amounted to 1.01; with AT9283 + Lapatinib (first compound 0.03 µM), 0.911; in the experiment with AT9283 + Lapatinib (first compound 0.09487 µM) it was 0.845; with AT9283 + Lapatinib (first compound 0.3 µM), 0.168; with Erlotinib + AZD7762 (first compound 0.02 µM), 0.794; with Erlotinib + AZD7762 (first compound 0.2 µM), 0.687. Also, the relative viability worked out at 0.674 with Erlotinib + AZD7762 (first compound 0.6325 µM); 0.682 in the experiment with Erlotinib + AZD7762 (first compound 2 µM); 0.395 with AT9283 + Palbociclib (first compound 0.003 µM); 0.404 with AT9283 + Palbociclib (first compound 0.03 µM); 0.376 in the experiment with AT9283 + Palbociclib (first compound 0.09487 µM); 0.152 with AT9283 + Palbociclib (first compound 0.3 µM). For the same cell line, the relative viability with Erlotinib + Foretinib (first compound 0.02 µM) is 1.01; with Erlotinib + Foretinib (first compound 0.2 µM) it was 0.821; with Erlotinib + Foretinib (first compound 0.6325 µM) it was 0.877; with Erlotinib + Foretinib (first compound 2 µM), 0.781; in the experiment with AT9283 + AZD7762 (first compound 0.003 µM), 0.9; in the experiment with AT9283 + AZD7762 (first compound 0.03 µM), 0.568. Further, the relative viability in the experiment with AT9283 + AZD7762 (first compound 0.09487 µM) stood at 0.602; with AT9283 + AZD7762 (first compound 0.3 µM), 0.23.
For the cell line NCI-H1395, the relative viability with AT9283 + Lapatinib (first compound 0.003 µM) came to 0.904; with AT9283 + Lapatinib (first compound 0.03 µM), 0.703; in the experiment with AT9283 + Lapatinib (first compound 0.09487 µM) it was 0.412; in the experiment with AT9283 + Lapatinib (first compound 0.3 µM), 0.427; with Erlotinib + AZD7762 (first compound 0.02 µM) it was 0.421; in the experiment with Erlotinib + AZD7762 (first compound 0.2 µM), 0.367. Further, the relative viability in the experiment with Erlotinib + AZD7762 (first compound 0.6325 µM) came to 0.338; with Erlotinib + AZD7762 (first compound 2 µM), 0.407; with AT9283 + Palbociclib (first compound 0.003 µM) it was 0.597; with AT9283 + Palbociclib (first compound 0.03 µM) it was 0.598; in the experiment with AT9283 + Palbociclib (first compound 0.09487 µM), 0.397; with AT9283 + Palbociclib (first compound 0.3 µM) it was 0.305. Besides, the relative viability came to 1.04 with Erlotinib + Foretinib (first compound 0.02 µM); 0.906 in the experiment with Erlotinib + Foretinib (first compound 0.2 µM); 1.13 in the experiment with Erlotinib + Foretinib (first compound 0.6325 µM); 0.975 with Erlotinib + Foretinib (first compound 2 µM); 0.411 in the experiment with AT9283 + AZD7762 (first compound 0.003 µM); 0.361 with AT9283 + AZD7762 (first compound 0.03 µM). The values for the relative viability in the experiment with AT9283 + AZD7762 (first compound 0.09487 µM) and with AT9283 + AZD7762 (first compound 0.3 µM) were 0.333 and 0.335, respectively.
Regarding NCI-H1437, the relative viability in the experiment with AT9283 + Lapatinib (first compound 0.003 µM) amounted to 0.702; with AT9283 + Lapatinib (first compound 0.03 µM), 0.246; with AT9283 + Lapatinib (first compound 0.09487 µM) it was 0.157; with AT9283 + Lapatinib (first compound 0.3 µM) it was 0.155; with Erlotinib + AZD7762 (first compound 0.02 µM), 1.01; with Erlotinib + AZD7762 (first compound 2 µM), 0.956. In addition, the relative viability in the experiment with AT9283 + Palbociclib (first compound 0.003 µM) stood at 0.319; with AT9283 + Palbociclib (first compound 0.03 µM) it was 0.354; with AT9283 + Palbociclib (first compound 0.09487 µM) it was 0.206; in the experiment with AT9283 + Palbociclib (first compound 0.3 µM), 0.193; with Erlotinib + Foretinib (first compound 0.02 µM) it was 1.31; in the experiment with Erlotinib + Foretinib (first compound 0.2 µM) it was 1.23. Moreover, the relative viability with Erlotinib + Foretinib (first compound 0.6325 µM) worked out at 1.24; in the experiment with Erlotinib + Foretinib (first compound 2 µM), 1.2; in the experiment with AT9283 + AZD7762 (first compound 0.003 µM), 1.11; in the experiment with AT9283 + AZD7762 (first compound 0.03 µM) it was 0.98; with AT9283 + AZD7762 (first compound 0.09487 µM), 0.431; in the experiment with AT9283 + AZD7762 (first compound 0.3 µM), 0.291.
As for NCI-H1651, the relative viability with AT9283 + Lapatinib (first compound 0.003 µM) is 0.83; with AT9283 + Lapatinib (first compound 0.03 µM), 0.481; with AT9283 + Lapatinib (first compound 0.09487 µM), 0.215; in the experiment with AT9283 + Lapatinib (first compound 0.3 µM), 0.279; with Erlotinib + AZD7762 (first compound 0.02 µM) it was 0.365; with Erlotinib + AZD7762 (first compound 0.2 µM) it was 0.428. The relative viability came to 0.406 with Erlotinib + AZD7762 (first compound 0.6325 µM); 0.304 with Erlotinib + AZD7762 (first compound 2 µM); 0.476 in the experiment with AT9283 + Palbociclib (first compound 0.003 µM); 0.502 with AT9283 + Palbociclib (first compound 0.03 µM); 0.534 in the experiment with AT9283 + Palbociclib (first compound 0.09487 µM); 0.237 in the experiment with AT9283 + Palbociclib (first compound 0.3 µM). In addition, the relative viability with Erlotinib + Foretinib (first compound 0.02 µM) turned out to be 0.704; with Erlotinib + Foretinib (first compound 0.2 µM), 0.753; with Erlotinib + Foretinib (first compound 2 µM), 0.753; with AT9283 + AZD7762 (first compound 0.003 µM), 0.43; in the experiment with AT9283 + AZD7762 (first compound 0.03 µM) it was 0.441; with AT9283 + AZD7762 (first compound 0.09487 µM) it was 0.403. Further, the relative viability in the experiment with AT9283 + AZD7762 (first compound 0.3 µM) was found to be 0.213.
Consider NCI-H1666, for which the relative viability in the experiment with AT9283 + Lapatinib (first compound 0.003 µM) stood at 0.634; with AT9283 + Lapatinib (first compound 0.03 µM) it was 0.386; with AT9283 + Lapatinib (first compound 0.09487 µM) it was 0.243; with AT9283 + Lapatinib (first compound 0.3 µM), 0.321; in the experiment with Erlotinib + AZD7762 (first compound 0.02 µM) it was 0.72; in the experiment with Erlotinib + AZD7762 (first compound 0.2 µM) it was 0.834. The relative viability with Erlotinib + AZD7762 (first compound 0.6325 µM) was 0.732; in the experiment with Erlotinib + AZD7762 (first compound 2 µM), 0.633; with AT9283 + Palbociclib (first compound 0.003 µM), 0.619; with AT9283 + Palbociclib (first compound 0.03 µM), 0.691; with AT9283 + Palbociclib (first compound 0.09487 µM), 0.524; in the experiment with AT9283 + Palbociclib (first compound 0.3 µM) it was 0.534. Further, the relative viability stood at 1.06 with Erlotinib + Foretinib (first compound 0.02 µM); 0.86 with Erlotinib + Foretinib (first compound 0.2 µM); 0.802 with Erlotinib + Foretinib (first compound 0.6325 µM); 0.767 in the experiment with Erlotinib + Foretinib (first compound 2 µM); 0.817 with AT9283 + AZD7762 (first compound 0.003 µM); 0.685 in the experiment with AT9283 + AZD7762 (first compound 0.03 µM). For the same cell line, the relative viability in the experiment with AT9283 + AZD7762 (first compound 0.09487 µM) is 0.733; in the experiment with AT9283 + AZD7762 (first compound 0.3 µM), 0.491.
Take NCI-H1734: the relative viability in the experiment with AT9283 + Lapatinib (first compound 0.003 µM) amounted to 0.988; with AT9283 + Lapatinib (first compound 0.03 µM), 0.687; with AT9283 + Lapatinib (first compound 0.09487 µM), 0.291; with AT9283 + Lapatinib (first compound 0.3 µM), 0.249; with Erlotinib + AZD7762 (first compound 0.02 µM), 0.579; with Erlotinib + AZD7762 (first compound 0.2 µM), 0.513. The relative viability with Erlotinib + AZD7762 (first compound 0.6325 µM) turned out to be 0.607; in the experiment with Erlotinib + AZD7762 (first compound 2 µM), 0.507; with AT9283 + Palbociclib (first compound 0.003 µM) it was 0.336; in the experiment with AT9283 + Palbociclib (first compound 0.03 µM) it was 0.281; with AT9283 + Palbociclib (first compound 0.09487 µM) it was 0.227; with AT9283 + Palbociclib (first compound 0.3 µM) it was 0.233. Further, the relative viability was 0.789 with Erlotinib + Foretinib (first compound 0.02 µM); 0.921 with Erlotinib + Foretinib (first compound 0.6325 µM); 0.768 in the experiment with Erlotinib + Foretinib (first compound 2 µM); 0.533 with AT9283 + AZD7762 (first compound 0.003 µM); 0.274 with AT9283 + AZD7762 (first compound 0.03 µM); 0.225 with AT9283 + AZD7762 (first compound 0.09487 µM). In the experiment with AT9283 + AZD7762 (first compound 0.3 µM), the relative viability was 0.245.
As to NCI-H1755, the relative viability in the experiment with AT9283 + Lapatinib (first compound 0.003 µM) is 1.08; with AT9283 + Lapatinib (first compound 0.03 µM), 0.775; with AT9283 + Lapatinib (first compound 0.09487 µM), 0.357; with AT9283 + Lapatinib (first compound 0.3 µM), 0.399; in the experiment with Erlotinib + AZD7762 (first compound 0.02 µM) it was 0.487; with Erlotinib + AZD7762 (first compound 0.2 µM), 0.438. Besides, the relative viability was found to be 0.499 with Erlotinib + AZD7762 (first compound 0.6325 µM); 0.379 with Erlotinib + AZD7762 (first compound 2 µM); 0.434 with AT9283 + Palbociclib (first compound 0.003 µM); 0.463 in the experiment with AT9283 + Palbociclib (first compound 0.03 µM); 0.469 with AT9283 + Palbociclib (first compound 0.09487 µM); 0.499 with AT9283 + Palbociclib (first compound 0.3 µM). Moreover, the relative viability with Erlotinib + Foretinib (first compound 0.02 µM) amounted to 0.942; with Erlotinib + Foretinib (first compound 0.2 µM), 0.936; with Erlotinib + Foretinib (first compound 0.6325 µM), 0.916; with Erlotinib + Foretinib (first compound 2 µM) it was 0.907; with AT9283 + AZD7762 (first compound 0.003 µM), 0.466; with AT9283 + AZD7762 (first compound 0.03 µM), 0.401. Moreover, the relative viability with AT9283 + AZD7762 (first compound 0.09487 µM) is 0.326; with AT9283 + AZD7762 (first compound 0.3 µM), 0.267.
